Tests used:
[1] = molecular target: T1, human recombinant glutaminyl cyclase (hQC) (Homo sapiens, UniProt Q16769); assay: In vitro determination of human QC inhibitory activity (SensoLyte Green Glutaminyl Cyclase Activity Assay Kit); format: biochemical
T1 construct: purchased Eurogentec AS-72230
Description: Basic statistical analysis was performed.

[2] = Parallel artificial membrane permeation assay for blood-brain barrier (PAMPA-BBB); format: in vitro ADME, porcine; settings: for Papp: pig, PBS:EtOH (70:30), read-out: Blood-brain barrier permeability Pe; for CNS prediction: predictive penetration in the CNS from Pe
Description: A parallel artificial membrane permeation assay for blood-brain barrier (PAMPA-BBB) was used to evaluate the brain penetration of compounds of formula I, following the method described by L. Di et al., “High throughput artificial membrane permeability assay for blood-brain barrier”, European Journal of Medicinal Chemistry 2003, vol. 38. pp. 223-232. The in vitro permeability (Pe) of the test compounds through a lipid extract of porcine brain membrane was determined. Assayed compounds were tested using a mixture of PBS:EtOH (70:30). Assay validation was made by comparing the experimental and reported permeability values of a set of fourteen commercial drugs and a lineal correlation between experimental and reported permeability values of the fourteen commercial drugs was obtained (y=1.678 x−1.447; R^2=0.9313). From this equation and taking into account the limits established by Di et al. for BBB permeation, the ranges of permeability were established, as follows. Compounds of high BBB permeation (CNS+): Pe (10^−6 cm s^−1)>5.26; compounds of low BBB permeation (CNS−): Pe (10^−6 cm s^−1)<1.91; and compounds of uncertain BBB permeation (CNS+/−): 5.26>Pe (10^−6 cm s^−1)>1.91. The permeability results are averages of three different experiments in triplicate and a predictive penetration in the CNS is also given (Table 5).

[3] = molecular target: T2, recombinant human sEH (hsEH) (Homo sapiens, UniProt P34913); assay: In vitro determination of sEH inhibitory activity (fluorescent PHOME assay)
T2 sequence (P34913 1-555): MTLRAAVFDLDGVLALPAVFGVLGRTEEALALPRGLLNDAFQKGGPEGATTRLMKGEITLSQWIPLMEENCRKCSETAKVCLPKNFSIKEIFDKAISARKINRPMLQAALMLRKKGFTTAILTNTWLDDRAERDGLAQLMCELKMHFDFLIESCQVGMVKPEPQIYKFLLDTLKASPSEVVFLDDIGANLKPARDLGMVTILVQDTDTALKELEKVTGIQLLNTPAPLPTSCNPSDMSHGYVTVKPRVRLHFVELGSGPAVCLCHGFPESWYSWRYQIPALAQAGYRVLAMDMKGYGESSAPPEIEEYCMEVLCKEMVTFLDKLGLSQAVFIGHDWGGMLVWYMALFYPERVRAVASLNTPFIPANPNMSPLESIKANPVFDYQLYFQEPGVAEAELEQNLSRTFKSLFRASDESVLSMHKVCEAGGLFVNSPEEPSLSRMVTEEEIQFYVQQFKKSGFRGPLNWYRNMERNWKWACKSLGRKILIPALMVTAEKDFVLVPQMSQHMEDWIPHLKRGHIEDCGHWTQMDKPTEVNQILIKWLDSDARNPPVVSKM
Description: Control compound (TPPU): N-[1-(1-Oxopropyl)-4-piperidinyl]-N′-[4-(trifluoromethoxy)phenyl]urea.
Five μL of DMSO were added to background and positive control wells, and then 5 μL of inhibitor solution were added in the inhibitor wells. Five μL of the solution of hsEH were added to the positive control and inhibitor wells and the mixture was stirred. A 1/21 dilution of the solution of PHOME with assay buffer was prepared according to the final volume required, and then 105 μL of each well were added. The plate was carefully shaken for 10 seconds and was incubated for 5 minutes at room temperature. […] The intensity of fluorescence was used to analyze and calculate the IC50 values. Results were obtained by regression analysis from at least three data points in a linear region of the curve. IC50 values are average of minimum three independent replicates.

LPS stimulated BV2 cells = assay: Cytokine release in LPS stimulated BV2 cells; format: cell-based, murine; settings: compound 10 μM, 24 h
Description: Compounds of formula I were diluted from 250 mM DMSO stock solutions to a 10 mM stock in DMSO. Thereafter, the compounds were diluted to 10 μM and 1 μM in medium, so that the final DMSO concentration in the well was 0.1% for all conditions. The stock solutions were stored at −20° C. until further use.
Culture and treatment of BV-2 cells: The murine microglial cell line BV-2 was cultivated in Dulbecco's modified eagle medium (DMEM) supplemented with 10% fetal calf serum (FCS), 1% penicillin/streptomycin and 2 mM L-glutamine (culture medium). For the lipopolysaccharide (LPS) stimulation assay, 20,000 BV-2 cells per well (uncoated 96 well plates) were plated out. After 48 h, the medium was changed to treatment medium (DMEM, 5% FCS, 2 mM L-glutamine) and cells were maintained in treatment medium for the remaining culture period. After changing cells to treatment medium, the compounds were administered 1 h before LPS stimulation (Sigma-Aldrich; L6529; 1 mg/mL stock in ddH2O, final concentration in well: 100 ng/mL (dilutions in medium)). Cells treated with vehicle and LPS alone served as controls. All wells were handled the same way. After 24 h of stimulation, cell supernatants were collected for the cytokine measurement. The experiment was performed in n=6 technical replicates for all groups.
Cytokine measurement: The samples were diluted 1:2 and analysed for 4 cytokines (IL-1β, IL-2, IL-6, TNF-α) with a commercially available immunosorbent assay kit (U-plex, K15069L, Mesoscale Discovery) according to the instructions of the manufacturer. In brief, 25 μL of diluent 41 and 25 μL sample or respective standard were placed into wells of the pre-coated U-plex plate and incubated on an orbital shaker at room temperature for 1 h. Plates were washed 3 times with phosphate buffered saline with 0.05% Tween 20 (PBST) and thereafter 50 μL of detection antibody were added. Plates were again incubated on an orbital shaker at room temperature for 1 h. After another 3 washing steps with PBST, 150 μL of Mesoscale Discovery (MSD) GOLD Read Buffer were added and plates were read on Sector imager. Data were evaluated in comparison to calibration curves provided in the kit.
Statistics: Basic statistical analysis was performed. Group differences were evaluated by e.g. one-way ANOVA followed by a posthoc test, if appropriate.

T1 sequence (Q16769 29-361): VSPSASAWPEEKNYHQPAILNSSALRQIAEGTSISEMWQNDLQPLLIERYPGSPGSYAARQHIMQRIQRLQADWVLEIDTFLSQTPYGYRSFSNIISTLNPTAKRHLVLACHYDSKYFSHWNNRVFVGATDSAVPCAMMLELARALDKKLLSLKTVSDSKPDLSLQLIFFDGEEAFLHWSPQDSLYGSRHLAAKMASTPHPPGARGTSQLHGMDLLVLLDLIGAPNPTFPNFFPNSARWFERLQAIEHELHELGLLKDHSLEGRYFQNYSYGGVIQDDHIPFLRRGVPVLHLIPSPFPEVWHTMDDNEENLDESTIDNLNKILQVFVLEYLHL

Structure (SMILES): Cc1cncn1CCCNC(=O)NC1C2CC3CC(C2)CC1(F)C3 (racemic) [Iaa, (±)-1-(1-fluoroadamantan-2-yl)-3-[3-(5-methyl-1H-imidazol-1-yl)propyl]urea]
- IC50 [1]: 767 nM
- Papp [2]: 7.4 ×10⁻⁶ cm/s
- CNS prediction [2]: CNS+ (Compounds of high BBB permeation (CNS+): Pe (10^−6 cm s^−1)>5.26)
- IC50 [3]: 5900 nM

Structure (SMILES): Cc1cncn1CCCNC(=O)NC1C2CC3CC(C2)CC1(Cl)C3 (racemic) [Iz, (±)-1-(1-chloroadamantan-2-yl)-3-[3-(5-methyl-1H-imidazol-1-yl)propyl]urea]
- IC50 [1]: 496 nM
- Papp [2]: 6 ×10⁻⁶ cm/s
- CNS prediction [2]: CNS+ (Compounds of high BBB permeation (CNS+): Pe (10^−6 cm s^−1)>5.26)
- IC50 [3]: 30 nM

Structure (SMILES): Cc1cncn1CCCNC(=O)NC12CC3CC(CC(C3)C1)C2 [Ia, 1-(adamantan-1-yl)-3-[3-(5-methyl-1H-imidazol-1-yl)propyl]urea]
- IC50 [1]: 610 nM
- Papp [2]: 7.1 ×10⁻⁶ cm/s
- CNS prediction [2]: CNS+ (Compounds of high BBB permeation (CNS+): Pe (10^−6 cm s^−1)>5.26)
- IC50 [3]: 35 nM

Structure (SMILES): Cc1cncn1CCCNC(=O)N[C@H]1C2CC3CC1C[C@](Cl)(C3)C2 [Iab, trans-1-(5-chloroadamantan-2-yl)-3-[3-(5-methyl-1H-imidazol-1-yl)propyl]urea]
- IC50 [1]: 559 nM
- Papp [2]: 13.1 ×10⁻⁶ cm/s
- CNS prediction [2]: CNS+ (Compounds of high BBB permeation (CNS+): Pe (10^−6 cm s^−1)>5.26)
- IC50 [3]: 39 nM

Structure (SMILES): Cc1cncn1CCCNC(=O)N[C@H]1C2CC3CC1C[C@](F)(C3)C2 [Iac, trans-1-(5-fluoroadamantan-2-yl)-3-[3-(5-methyl-1H-imidazol-1-yl)propyl]urea]
- IC50 [1]: 236 nM
- Papp [2]: 8.6 ×10⁻⁶ cm/s
- CNS prediction [2]: CNS+ (Compounds of high BBB permeation (CNS+): Pe (10^−6 cm s^−1)>5.26)
- IC50 [3]: 20 nM

Structure (SMILES): O=C(NCCCn1ccnc1)NC12CC3CC(CC(C3)C1)C2 [Ib, 1-[3-(1H-imidazol-1-yl)propyl]-3-(adamantan-1-yl)urea]
- IC50 [1]: 12700 nM
- IC50 [3]: 93 nM

Structure (SMILES): Cc1cncn1CCCNC(=O)NC12CC3CC(CC(C)(C3)C1)C2 [Ic, 1-[3-(5-methyl-1H-imidazol-1-yl)propyl]-3-(3-methyladamantan-1-yl)urea]
- Papp [2]: 10.2 ×10⁻⁶ cm/s
- CNS prediction [2]: CNS+ (Compounds of high BBB permeation (CNS+): Pe (10^−6 cm s^−1)>5.26)
- IC50 [3]: 13.3 nM

Structure (SMILES): Cc1cncn1CCCNC(=O)NC12CC3CC(C)(CC(C)(C3)C1)C2 [Ie, 1-(3,5-dimethyladamantan-1-yl)-3-[3-(5-methyl-1H-imidazol-1-yl)propyl]urea]
- IC50 [1]: 2100 nM
- Papp [2]: 8.8 ×10⁻⁶ cm/s
- CNS prediction [2]: CNS+ (Compounds of high BBB permeation (CNS+): Pe (10^−6 cm s^−1)>5.26)
- IC50 [3]: 29 nM

Structure (SMILES): Cc1cncn1CCCNC(=O)NC12CC3CC(CC(Cl)(C3)C1)C2 [If, 1-(3-chloroadamantan-1-yl)-3-[3-(5-methyl-1H-imidazol-1-yl)propyl]urea]
- IC50 [1]: 990 nM
- IC50 [3]: 37 nM

Structure (SMILES): Cc1cncn1CCCNC(=O)NC12CC3CC(CC(F)(C3)C1)C2 [Ig, 1-(3-fluoroadamantan-1-yl)-3-[3-(5-methyl-1H-imidazol-1-yl)propyl]urea]
- IC50 [1]: 810 nM
- IC50 [3]: 150 nM

Structure (SMILES): Cc1cncn1CCCNC(=O)NC12CC3CC(CC(O)(C3)C1)C2 [Ih, 1-(3-hydroxyadamantan-1-yl)-3-[3-(5-methyl-1H-imidazol-1-yl)propyl]urea]
- IC50 [1]: 1040 nM
- IC50 [3]: 330 nM

Structure (SMILES): O=C(NCCCn1ccnc1)NC1C2CC3CC(C2)CC1C3 (stereo not shown) [Ij, 1-[3-(1H-imidazol-1-yl)propyl]-3-(adamantan-2-yl)urea]
- IC50 [1]: 5200 nM
- Papp [2]: 9.4 ×10⁻⁶ cm/s
- CNS prediction [2]: CNS+ (Compounds of high BBB permeation (CNS+): Pe (10^−6 cm s^−1)>5.26)
- IC50 [3]: 45 nM

Structure (SMILES): Cc1cncn1CCCNC(=O)NCC12CC3CC(CC(C3)C1)C2 [Ik, 1-[(adamantan-1-yl)methyl]-3-[3-(5-methyl-1H-imidazol-1-yl)propyl]urea]
- IC50 [1]: 730 nM
- Papp [2]: 14.1 ×10⁻⁶ cm/s
- CNS prediction [2]: CNS+ (Compounds of high BBB permeation (CNS+): Pe (10^−6 cm s^−1)>5.26)
- IC50 [3]: 9 nM

Structure (SMILES): O=C(NCCCn1ccnc1)NCC12CC3CC(CC(C3)C1)C2 [Im, 1-[3-(1H-imidazol-1-yl)propyl]-3-[(adamantan-1-yl)methyl]urea]
- IC50 [1]: 3500 nM
- Papp [2]: 11.8 ×10⁻⁶ cm/s
- CNS prediction [2]: CNS+ (Compounds of high BBB permeation (CNS+): Pe (10^−6 cm s^−1)>5.26)
- IC50 [3]: 300 nM

Structure (SMILES): Cc1cncn1CCCNC(=O)NCCC12CC3CC(CC(C3)C1)C2 [Io, 1-[2-(adamantan-1-yl)ethyl]-3-[3-(5-methyl-1H-imidazol-1-yl)propyl]urea]
- IC50 [1]: 1650 nM
- Papp [2]: 18.7 ×10⁻⁶ cm/s
- CNS prediction [2]: CNS+ (Compounds of high BBB permeation (CNS+): Pe (10^−6 cm s^−1)>5.26)
- IC50 [3]: 1.3 nM

Structure (SMILES): Cc1cncn1CCCNC(=O)NC12CC3CC(CC(C3)O1)C2 [Iq, 1-(2-oxaadamantan-1-yl)-3-[3-(5-methyl-1H-imidazol-1-yl)propyl]urea]
- Papp [2]: 26.4 ×10⁻⁶ cm/s
- CNS prediction [2]: CNS+ (Compounds of high BBB permeation (CNS+): Pe (10^−6 cm s^−1)>5.26)
- IC50 [3]: 5100 nM

Structure (SMILES): Cc1cncn1CCCNC(=O)NCC12CC3CC(CC1C3)C2 [Iu, 1-[(noradamantan-3-yl)methyl]-3-[3-(5-methyl-1H-imidazol-1-yl)propyl]urea]
- Papp [2]: 5.4 ×10⁻⁶ cm/s
- CNS prediction [2]: CNS+ (Compounds of high BBB permeation (CNS+): Pe (10^−6 cm s^−1)>5.26)
- IC50 [3]: 194 nM

Structure (SMILES): Cc1cncn1CCCNC(=O)NCC12CC3(C)C4(C)CC1CC4(C)C3(C)C2 [Iw, 1-[3-(5-methyl-1H-imidazol-1-yl)propyl]-3-[(3,4,8,9-tetramethyltetracyclo[4.4.0.0^3,9.0^4,8]decan-1-yl)methyl]urea]
- IC50 [1]: 6800 nM
- IC50 [3]: 72 nM

Structure (SMILES): Cc1cncn1CCCNC(=O)NC(C)C12CC3CC(CC(C3)C1)C2 (stereo not shown) [Ix, 1-[1-(adamantan-1-yl)ethyl]-3-[3-(5-methyl-1H-imidazol-1-yl)propyl]urea]
- Papp [2]: 6.5 ×10⁻⁶ cm/s
- CNS prediction [2]: CNS+ (Compounds of high BBB permeation (CNS+): Pe (10^−6 cm s^−1)>5.26)
- IC50 [3]: 59 nM

Structure (SMILES): CCC(=O)N1CCC(NC(=O)Nc2ccc(OC(F)(F)F)cc2)CC1 [TPPU, N-[1-(1-Oxopropyl)-4-piperidinyl]-N′-[4-(trifluoromethoxy)phenyl]urea, reference compound]
- IL-1β level (LPS stimulated BV2 cells): 125 % of vehicle control
- IL-2 level (LPS stimulated BV2 cells): 113 % of vehicle control
- IL-6 level (LPS stimulated BV2 cells): 117 % of vehicle control
- TNF-α level (LPS stimulated BV2 cells): 96 % of vehicle control

Structure (SMILES): C[C@@H]1C[C@H]2[C@@H]3CCC4=CC(=O)C=C[C@]4(C)[C@@]3(F)[C@@H](O)C[C@]2(C)[C@@]1(O)C(=O)CO [dexamethasone, reference compound]
- IL-1β level (LPS stimulated BV2 cells): 42 % of vehicle control
- IL-2 level (LPS stimulated BV2 cells): 50 % of vehicle control
- IL-6 level (LPS stimulated BV2 cells): 55 % of vehicle control
- TNF-α level (LPS stimulated BV2 cells): 49 % of vehicle control

Reference: patent US20260092039A1, “DUAL INHIBITORS FOR THE TREATMENT OF ALZHEIMER'S DISEASE” (UNIVERSITAT DE BARCELONA, priority 2023, published 2026)
